The numbers were not newly measured in patent US9138417B2, “Controlled release particles and production method thereof” (priority 2011, dated 2015), which cites them from elsewhere.

Regarding `CCCCNC(=O)OCC#CI` [IPBC, 3-iodo-2-propynylbutylcarbamate], the water solubility is given as 150 ppm.

`C=C(C)C(=O)O` [Methacrylic acid]: the water solubility is on record as 8.9 mass%.

For the compound `CCCC1COC(Cn2cncn2)(c2ccc(Cl)cc2Cl)O1` (stereo not drawn) [Propiconazole, 1-[2-(2,4-dichlorophenyl)-4-n-propyl-1,3-dioxolane-2-ylmethyl]-1H-1,2,4-triazole], the water solubility was 110 ppm.
